Reference: patent US10806794B2, “Protease inhibitors having enhanced features” (priority 2008, dated 2020)
Read-outs that look alike come from different tables or passages of the source.

Tests used:
[1] = Plasma protein binding by equilibrium dialysis, mouse plasma; assay type: in vitro ADME; settings: read-out: Mouse Plasma Protein Binding Fu ± SD
Procedure: (§1) In assays to estimate binding of test compounds to plasma proteins, test compound solutions (5 μM) are prepared in buffer and species-specific plasma (final DMSO concentration 0.5%). The plasma-containing solution is added to one side of the membrane of an equilibrium dialysis system, and the plasma-free is added to the other side. Dialysis was allowed to reach equilibrium by incubation for two hours at 37° C. The concentration of compound on both sides of the membrane was measured using LC-MS/MS.

[2] = Plasma protein binding by equilibrium dialysis, monkey plasma; assay type: in vitro ADME; settings: read-out: Monkey Plasma Protein Binding Fu ± SD
Procedure: as §1

[3] = Metabolic stability in Sprague-Dawley rat hepatocytes; assay type: in vitro ADME; settings: for hepatocyte CLint at 0.1 μM: read-out: Clint ± SEM
[4] = Microsomal protein binding by equilibrium dialysis; assay type: in vitro ADME; settings: human liver microsomes, read-out: Microsomal Protein Binding Fu ± SD
In short: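 Compound at 3 μM final in buffer with or without human liver microsomes, dialysed to equilibrium at 37 °C. Both sides quantified by LC-MS/MS to derive fraction unbound (Fu).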

CYP2C9 [5] = molecular target: T1, CYP2C9 (Homo sapiens (Human), UniProt P11712); test: biochemical
T1 sequence (P11712 whole entry): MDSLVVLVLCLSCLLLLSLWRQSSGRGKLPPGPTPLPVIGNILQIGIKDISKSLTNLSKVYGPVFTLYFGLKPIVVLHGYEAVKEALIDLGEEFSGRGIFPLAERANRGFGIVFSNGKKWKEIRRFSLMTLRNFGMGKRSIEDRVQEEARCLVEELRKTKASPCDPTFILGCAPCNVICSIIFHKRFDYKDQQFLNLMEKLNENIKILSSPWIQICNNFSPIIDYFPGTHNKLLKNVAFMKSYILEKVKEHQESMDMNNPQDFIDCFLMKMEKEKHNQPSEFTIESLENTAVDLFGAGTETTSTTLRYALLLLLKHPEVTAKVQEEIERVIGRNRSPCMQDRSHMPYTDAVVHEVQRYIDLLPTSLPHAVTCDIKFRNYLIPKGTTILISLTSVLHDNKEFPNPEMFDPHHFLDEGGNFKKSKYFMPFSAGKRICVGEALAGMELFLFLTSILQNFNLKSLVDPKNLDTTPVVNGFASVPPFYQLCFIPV

[6] = Plasma protein binding by equilibrium dialysis, dog plasma; assay type: in vitro ADME; settings: read-out: Dog Plasma Protein Binding Fu ± SD
Procedure: as §1

in vitro = in vitro ADME; settings: dog, microsomes
Source text: Metabolic stability of test compounds was studied in dog liver microsomes.

[7] = Metabolic stability in beagle dog hepatocytes; assay type: in vitro ADME; settings: for hepatocyte CLint at 0.1 μM: read-out: Clint ± SEM
[8] = Metabolic stability in cryopreserved human hepatocytes; settings: human, cryopreserved human hepatocytes, CLint ± SEM, human hepatocytes, 3 uM, incubated up to one hour
In short: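 Test compounds at 0.1 μM or 3 μM incubated with cryopreserved human hepatocytes at 0.5×10^6 viable cells/mL. Sampling up to four hours (0.1 μM) or one or two hours (3 μM), methanol quench, then remaining parent measured by cassette LC-MS/MS.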

[9] = Plasma protein binding by equilibrium dialysis, rat plasma; assay type: in vitro ADME; settings: read-out: Rat Plasma Protein Binding Fu ± SD
Procedure: as §1

CYP3A4 = CYP3A4 (Homo sapiens (Human), UniProt P08684); test: Metabolic stability in CYP3A4-expressing Bactosomes; assay type: in vitro ADME; settings: 5 μM
Chain of CYP3A4 (P08684 whole entry, canonical isoform): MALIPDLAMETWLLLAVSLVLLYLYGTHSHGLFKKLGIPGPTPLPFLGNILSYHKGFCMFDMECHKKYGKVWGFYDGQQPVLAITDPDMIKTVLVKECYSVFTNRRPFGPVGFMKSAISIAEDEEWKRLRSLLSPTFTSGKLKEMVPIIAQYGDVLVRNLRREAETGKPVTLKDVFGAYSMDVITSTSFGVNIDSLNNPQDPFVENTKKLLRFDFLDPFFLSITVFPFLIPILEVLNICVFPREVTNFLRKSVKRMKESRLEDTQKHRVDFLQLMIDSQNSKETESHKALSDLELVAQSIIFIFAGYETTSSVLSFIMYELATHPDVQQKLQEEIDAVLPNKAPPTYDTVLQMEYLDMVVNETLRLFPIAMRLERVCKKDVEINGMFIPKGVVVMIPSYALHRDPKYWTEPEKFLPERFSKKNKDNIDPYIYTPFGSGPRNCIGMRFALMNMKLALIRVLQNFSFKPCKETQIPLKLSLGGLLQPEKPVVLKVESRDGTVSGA
Procedure: (§2) Compounds were evaluated for their propensity to act as substrates of individual human cytochrome P450 enzymes using a bacterial membrane preparation co-expressing human NADPH-cytochrome P450 reductase with either human CYP3A4 or CYP2D6 (Bactosomes™ Cypex, Ltd., Dundee, UK). In vitro metabolism studies using Bactosomes™ expressing individual human CYP isoforms monitor the extent to which a test compound is metabolized by a single CYP450 enzyme and allow identification of the CYP isoforms that may be responsible for the metabolism of a test compound. Timecourse analyses of test molecules (5 μM) with CYP2D6- or CYP3A4-expressing Bactosomes™ (100 pmol/mL) are performed in buffer (0.1 M phosphate, pH 7.4) in a final reaction volume of 25 μL. […] Reactions are terminated by the addition of methanol (50 μL) containing internal standard at 0, 5, 15, 30, and 45 minutes.

CYP2D6 = CYP2D6 (Homo sapiens (Human), UniProt P10635); test: Metabolic stability in CYP2D6-expressing Bactosomes; assay type: in vitro ADME; settings: 5 μM
Chain of CYP2D6 (P10635 whole entry): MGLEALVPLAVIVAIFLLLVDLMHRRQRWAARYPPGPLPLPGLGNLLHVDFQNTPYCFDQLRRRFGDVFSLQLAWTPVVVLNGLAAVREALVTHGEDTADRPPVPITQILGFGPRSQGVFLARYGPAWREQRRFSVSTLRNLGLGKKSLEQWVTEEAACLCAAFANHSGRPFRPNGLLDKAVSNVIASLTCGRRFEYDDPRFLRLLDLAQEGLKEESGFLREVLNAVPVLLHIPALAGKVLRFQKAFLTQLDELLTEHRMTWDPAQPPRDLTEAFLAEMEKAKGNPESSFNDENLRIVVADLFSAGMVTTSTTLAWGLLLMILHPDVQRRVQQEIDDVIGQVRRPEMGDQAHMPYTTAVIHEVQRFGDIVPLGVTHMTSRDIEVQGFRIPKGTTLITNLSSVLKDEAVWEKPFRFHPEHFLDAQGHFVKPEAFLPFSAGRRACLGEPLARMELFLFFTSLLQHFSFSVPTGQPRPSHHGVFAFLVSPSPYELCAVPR
Procedure: as §2

mouse plasma proteins = test: Plasma protein binding by equilibrium dialysis, mouse plasma; assay type: in vitro ADME; settings: fraction unbound
Procedure: as §1

CEM-SS cells = test system: CEM-SS cells
Procedure: To evaluate whether conjugated protease inhibitors retain the ability to protect against HIV-1 infection, CEM-SS cells infected with the RF strain of HIV-1 were treated with test compounds for six days, and then cell viability was monitored using the tetrazolium dye XTT. […] A value for Therapeutic Index (TI) was calculated as TC50/EC50.

CYP2C9 [10] = molecular target: T1, CYP2C9; settings: microsomes
[11] = Metabolic stability in cynomolgus monkey hepatocytes; assay type: in vitro ADME; settings: cynomolgus monkey

## COC(=O)N[C@H](C(=O)N[C@@H](Cc1ccccc1)[C@@H](O)CN(Cc1ccc(-c2ccccn2)cc1)NC(=O)[C@@H](NC(=O)OC)C(C)(C)C)C(C)(C)C [Atazanavir, reference compound]
[1]
  fraction unbound at 2 h, 5 μM: 0.0574 ± 0.00286
[2]
  fraction unbound at 2 h, 5 μM: 0.201 ± 0.0183
[3]
  half-life at 0.1 μM: 13.7 min
  hepatocyte CLint at 0.1 μM: 101 ± 0.00802 µL/min/1e6 cells
[4]
  fraction unbound at 3 μM: 0.846 ± 0.0308
CYP2C9 [5]
  IC50: 10.3 µM
[6]
  fraction unbound at 2 h, 5 μM: 0.139 ± 0.0167
In vitro
  half-life: 51.8 min
  microsomal CLint: 26.8 µL/min/mg
[7]
  half-life at 0.1 μM: 758 min
  hepatocyte CLint at 0.1 μM: 1.83 ± 0.000561 µL/min/1e6 cells
[8]
  hepatocyte CLint at 3 μM: 5.15 ± 1.13 µL/min/1e6 cells
[9]
  fraction unbound at 2 h, 5 μM: 0.079 ± 0.00684

## COCCOCCOCCOCCOCCNc1ccc(S(=O)(=O)N(CC(C)C)CC(O)[C@H](Cc2ccccc2)NC(=O)O[C@H]2CO[C@H]3OCC[C@H]32)cc1 (stereo partly drawn) [mPEG5-N-Darunavir]
CYP3A4
  3A4 t1/2 ± SEM: 37.4 ± 4.78 min
CYP2D6
  2D6 t1/2 ± SEM: 49.6 ± 2.63 min

## COCCOCCOCCOCCOCCOCCOCCNc1ccc(S(=O)(=O)N(CC(C)C)CC(O)[C@H](Cc2ccccc2)NC(=O)O[C@H]2CO[C@H]3OCC[C@H]32)cc1 (stereo partly drawn) [mPEG7-N-Darunavir]
CYP3A4
  3A4 t1/2 ± SEM: 13.9 ± 1.92 min
CYP2D6
  2D6 t1/2 ± SEM: 29.1 ± 1.95 min

## COCCOC(=O)NC(C(=O)NC(Cc1ccccc1)C(O)CN(Cc1ccc(-c2ccccn2)cc1)NC(=O)C(NC(=O)OC)C(C)(C)C)C(C)(C)C (stereo not drawn) [mono-mPEG1-Atazanavir]
Mouse plasma proteins
  Mouse Plasma Protein Binding Fu ± SD: 0.0666 ± 0.00662
CEM-SS cells
  CEM-SS TC50 ± SD: 49.1 ± 6.4 µM
CYP2C9 [10]
  IC50: > 25 µM

## COCCOCCOCCOC(=O)NC(C(=O)NC(Cc1ccccc1)C(O)CN(Cc1ccc(-c2ccccn2)cc1)NC(=O)C(NC(=O)OC)C(C)(C)C)C(C)(C)C (stereo not drawn) [mono-mPEG3-Atazanavir, {1-[N′-[2-Hydroxy-3-(2-{2-[2-(2-methoxy-ethoxy)-ethoxy]-ethoxycarbonylamino}-3,3-dimethyl-butyrylamino)-4-phenyl-butyl]-N′-(4-pyridin-2-yl-benzyl)-hydrazinocarbonyl]-2,2-dimethyl-propyl}-carbamic Acid Methyl Ester]
[1]
  fraction unbound at 2 h, 5 μM: 0.159 ± 0.0161
[2]
  fraction unbound at 2 h, 5 μM: 0.204 ± 0.196
[3]
  half-life at 0.1 μM: 117 min
  hepatocyte CLint at 0.1 μM: 11.9 ± 0.00223 µL/min/1e6 cells
[4]
  fraction unbound at 3 μM: 0.852 ± 0.0495
CYP2C9 [5]
  IC50: 24.6 µM
[6]
  fraction unbound at 2 h, 5 μM: 0.252 ± 0.0397
In vitro
  half-life: 7.42 min
  microsomal CLint: 187 µL/min/mg
[11]
  half-life at 0.1 μM: 99.5 min
[11]; read-out: Clint ± SEM
  hepatocyte CLint at 0.1 μM: 13.9 ± 0.904 µL/min/1e6 cells
[7]
  half-life at 0.1 μM: 86 min
  hepatocyte CLint at 0.1 μM: 16.1 ± 0.000914 µL/min/1e6 cells
[9]
  fraction unbound at 2 h, 5 μM: 0.138 ± 0.0104

## COCCOCCOCCOCCOCCOC(=O)NC(C(=O)NC(Cc1ccccc1)C(O)CN(Cc1ccc(-c2ccccn2)cc1)NC(=O)C(NC(=O)OC)C(C)(C)C)C(C)(C)C (stereo not drawn) [mono-mPEG5-Atazanavir]
Mouse plasma proteins
  Mouse Plasma Protein Binding Fu ± SD: 0.217 ± 0.0103
In vitro
  Clint: 93.0 μL/min/mg protein
  t1/2: 14.9 min
CYP2C9 [10]
  IC50: 23.7 µM

## COCCOCCOCCOCCOCCOCCOC(=O)NC(C(=O)NC(Cc1ccccc1)C(O)CN(Cc1ccc(-c2ccccn2)cc1)NC(=O)C(NC(=O)OC)C(C)(C)C)C(C)(C)C (stereo not drawn) [mono-mPEG6-Atazanavir]
Mouse plasma proteins
  Mouse Plasma Protein Binding Fu ± SD: 0.159 ± 0.0167
In vitro
  Clint: 67.1 μL/min/mg protein
  t1/2: 20.7 min
CYP2C9 [10]
  IC50: > 25 µM

## COCCOCCOCCOCCOCCOCCOCCOC(=O)NC(C(=O)NC(Cc1ccccc1)C(O)CN(Cc1ccc(-c2ccccn2)cc1)NC(=O)C(NC(=O)OC)C(C)(C)C)C(C)(C)C (stereo not drawn) [mono-mPEG7-Atazanavir]
Mouse plasma proteins
  Mouse Plasma Protein Binding Fu ± SD: 0.174 ± 0.00791
CEM-SS cells
  CEM-SS TC50 ± SD: 133.8 ± 24.5 µM
CYP2C9 [10]
  IC50: > 25 µM
